Results: US20260209217A1, “CRYSTALLINE FORMS OF (S)-5-((3-(4-(4-FLUOROPHENYL)-1H-IMIDAZOL-2-YL)CHROMAN-6-YL)OXY)-3,4-DIHYDRO-1,8-NAPHTHYRIDIN-2(1H)-ONE” (Jazz Pharmaceuticals Ireland Limited, priority 2022, published 2026)
Entries after “also recorded” stand apart in the source; their conditions may differ.

Legend:
[1] = Stability of crystalline forms as evidenced by DSC and TGA thermograms; format: physicochemical; details: relative to the other crystalline forms
Procedure: Approximately 1-2 mg of material was weighed into an aluminum DSC pan with a pin hold. The sample pan then placed on Differential Scanning Calorimetry (TA Discovery 2500) with protected nitrogen flow rate of 50 mL/min. The sample was heated at rate of 10° C./min from 30° C. to 250° C. during which heat flow was recorded.
Approximately 2 mg of material was weighed into an open aluminum pan and loaded into a simultaneous thermogravimetric/differential thermal analyzer (TG Discovery 5500) and held at room temperature. Nitrogen flow rate for balance was 10 mL/min and nitrogen flow rate for sample was 25 mL/min. The sample was then heated at a rate of 10° C./min from 30° C. to 300° C. during which time the change in sample weight was recorded.

[2] = Dynamic vapor sorption (DVS) isotherm analysis; format: physicochemical
Procedure: Approximately 10 mg of material was analyzed using an automated dynamic vapor sorption analyzer (Intrinsic/Advantage) at 25° C. Method 1 for anhydrate undergo humidity cycle of 40-0-95-0-40% RH with stage step of 10% RH during which mass change was recorded. Method 2 for hydrate undergo humidity cycle of 40-95-0-95-40% RH with stage step of 10% RH during which mass change we recorded. Equilibrium set up was 0.002 dm/dt (%/min). Minimum dm/dt stability during in 60 min and maximum dm/dt stability duration is 360 min.

[3] = DVS Cycle 1, target 40.0 % P/Po, 24.8° C.
[4] = DVS Cycle 1, target 50.0 % P/Po, 24.8° C.
[5] = DVS Cycle 1, target 60.0 % P/Po, 24.8° C.
[6] = DVS Cycle 1, target 70.0 % P/Po, 24.8° C.
[7] = DVS Cycle 1, target 80.0 % P/Po, 24.8° C.
[8] = DVS Cycle 1, target 90.0 % P/Po, 24.8° C.
[9] = DVS Cycle 1, target 95.0 % P/Po, 24.8° C.
[10] = DVS Cycle 2, target 40.0 % P/Po, 24.8° C.
[11] = DVS Cycle 2, target 50.0 % P/Po, 24.8° C.
[12] = DVS Cycle 2, target 60.0 % P/Po, 24.8° C.
[13] = DVS Cycle 2, target 70.0 % P/Po, 24.8° C.
[14] = DVS Cycle 2, target 80.0 % P/Po, 24.8° C.
[15] = DVS Cycle 2, target 90.0 % P/Po, 24.8° C.
[16] = DVS Cycle 2, target 95.0 % P/Po, 24.8° C.
[17] = DVS Cycle 1, target 0.0 % P/Po, 24.9° C.
[18] = DVS Cycle 1, target 10.0 % P/Po, 24.9° C.
[19] = DVS Cycle 1, target 20.0 % P/Po, 24.9° C.
[20] = DVS Cycle 1, target 30.0 % P/Po, 24.9° C.
[21] = DVS Cycle 1, target 40.0 % P/Po, 24.9° C.
[22] = DVS Cycle 2, target 0.0 % P/Po, 24.9° C.
[23] = DVS Cycle 2, target 10.0 % P/Po, 24.9° C.
[24] = DVS Cycle 2, target 20.0 % P/Po, 24.9° C.
[25] = DVS Cycle 2, target 30.0 % P/Po, 24.9° C.
[26] = DVS Cycle 2, target 40.0 % P/Po, 24.9° C.

## O=C1CCc2c(Oc3ccc4c(c3)C[C@@H](c3nc(-c5ccc(F)cc5)c[nH]3)CO4)ccnc2N1 [Form A, (S)-5-((3-(4-(4-fluorophenyl)-1H-imidazol-2-yl)chroman-6-yl)oxy)-3,4-dihydro-1,8-naphthyridin-2(1H)-one]
[1]
  stability of the crystalline form: high degree of crystallinity and stability; also recorded: increased stability
[2]; DVS Cycle 1, target 0.0 % P/Po, 24.8° C.
  Change In Mass (%) - ref, Desorption: 0.002%
[2]; DVS Cycle 1, target 10.0 % P/Po, 24.8° C.
  Change In Mass (%) - ref, Desorption: 0.350%
[2]; DVS Cycle 1, target 20.0 % P/Po, 24.8° C.
  Change In Mass (%) - ref, Desorption: 0.941%
[2]; DVS Cycle 1, target 30.0 % P/Po, 24.8° C.
  Change In Mass (%) - ref, Desorption: 3.649%
[2]; [3]
  Change In Mass (%) - ref, Desorption: 4.700%
  Change In Mass (%) - ref, Hysteresis: 0.077%
  Change In Mass (%) - ref, Sorption: 4.623%
[2]; [4]
  Change In Mass (%) - ref, Desorption: 5.395%
  Change In Mass (%) - ref, Hysteresis: 0.283%
  Change In Mass (%) - ref, Sorption: 5.112%
[2]; [5]
  Change In Mass (%) - ref, Desorption: 5.814%
  Change In Mass (%) - ref, Hysteresis: 0.339%
  Change In Mass (%) - ref, Sorption: 5.475%
[2]; [6]
  Change In Mass (%) - ref, Desorption: 6.213%
  Change In Mass (%) - ref, Hysteresis: 0.368%
  Change In Mass (%) - ref, Sorption: 5.845%
[2]; [7]
  Change In Mass (%) - ref, Desorption: 6.535%
  Change In Mass (%) - ref, Hysteresis: 0.341%
  Change In Mass (%) - ref, Sorption: 6.194%
[2]; [8]
  Change In Mass (%) - ref, Desorption: 6.824%
  Change In Mass (%) - ref, Hysteresis: 0.230%
  Change In Mass (%) - ref, Sorption: 6.594%
[2]; [9]
  Change In Mass (%) - ref, Desorption: 6.838%
  Change In Mass (%) - ref, Sorption: 6.838%
[2]; DVS Cycle 2, target 0.0 % P/Po, 24.8° C.
  Change In Mass (%) - ref, Sorption: 0.002%
[2]; DVS Cycle 2, target 10.0 % P/Po, 24.8° C.
  Change In Mass (%) - ref, Sorption: 0.312%
[2]; DVS Cycle 2, target 20.0 % P/Po, 24.8° C.
  Change In Mass (%) - ref, Sorption: 0.853%
[2]; DVS Cycle 2, target 30.0 % P/Po, 24.8° C.
  Change In Mass (%) - ref, Sorption: 3.253%
[2]; [10]
  Change In Mass (%) - ref, Desorption: 4.601%
  Change In Mass (%) - ref, Hysteresis: 0.375%
  Change In Mass (%) - ref, Sorption: 4.225%
[2]; [11]
  Change In Mass (%) - ref, Desorption: 5.295%
  Change In Mass (%) - ref, Hysteresis: 0.495%
  Change In Mass (%) - ref, Sorption: 4.800%
[2]; [12]
  Change In Mass (%) - ref, Desorption: 5.715%
  Change In Mass (%) - ref, Hysteresis: 0.466%
  Change In Mass (%) - ref, Sorption: 5.248%
[2]; [13]
  Change In Mass (%) - ref, Desorption: 6.129%
  Change In Mass (%) - ref, Hysteresis: 0.423%
  Change In Mass (%) - ref, Sorption: 5.706%
[2]; [14]
  Change In Mass (%) - ref, Desorption: 6.446%
  Change In Mass (%) - ref, Hysteresis: 0.324%
  Change In Mass (%) - ref, Sorption: 6.122%
[2]; [15]
  Change In Mass (%) - ref, Desorption: 6.737%
  Change In Mass (%) - ref, Hysteresis: 0.201%
  Change In Mass (%) - ref, Sorption: 6.536%
[2]; [16]
  Change In Mass (%) - ref, Desorption: 6.745%
  Change In Mass (%) - ref, Sorption: 6.745%

## O=C1CCc2c(Oc3ccc4c(c3)C[C@@H](c3nc(-c5ccc(F)cc5)c[nH]3)CO4)ccnc2N1 [Form F, (S)-5-((3-(4-(4-fluorophenyl)-1H-imidazol-2-yl)chroman-6-yl)oxy)-3,4-dihydro-1,8-naphthyridin-2(1H)-one]
[1]
  stability of the crystalline form: high degree of crystallinity and stability; also recorded: increased stability
[2]; [17]
  Change In Mass (%) - ref, Desorption: 0.006%
  Change In Mass (%) - ref, Sorption: 0.006%
[2]; [18]
  Change In Mass (%) - ref, Desorption: 0.301%
  Change In Mass (%) - ref, Hysteresis: 0.128%
  Change In Mass (%) - ref, Sorption: 0.173%
[2]; [19]
  Change In Mass (%) - ref, Desorption: 0.458%
  Change In Mass (%) - ref, Hysteresis: 0.134%
  Change In Mass (%) - ref, Sorption: 0.324%
[2]; [20]
  Change In Mass (%) - ref, Desorption: 0.566%
  Change In Mass (%) - ref, Hysteresis: 0.111%
  Change In Mass (%) - ref, Sorption: 0.455%
[2]; [21]
  Change In Mass (%) - ref, Desorption: 0.649%
  Change In Mass (%) - ref, Hysteresis: 0.075%
  Change In Mass (%) - ref, Sorption: 0.574%
[2]; DVS Cycle 1, target 50.0 % P/Po, 24.9° C.
  Change In Mass (%) - ref, Sorption: 0.690%
[2]; DVS Cycle 1, target 60.0 % P/Po, 24.9° C.
  Change In Mass (%) - ref, Sorption: 0.813%
[2]; DVS Cycle 1, target 70.0 % P/Po, 24.9° C.
  Change In Mass (%) - ref, Sorption: 0.964%
[2]; DVS Cycle 1, target 80.0 % P/Po, 24.9° C.
  Change In Mass (%) - ref, Sorption: 1.160%
[2]; DVS Cycle 1, target 90.0 % P/Po, 24.9° C.
  Change In Mass (%) - ref, Sorption: 1.601%
[2]; DVS Cycle 1, target 95.0 % P/Po, 24.9° C.
  Change In Mass (%) - ref, Sorption: 1.911%
[2]; [22]
  Change In Mass (%) - ref, Desorption: 0.156%
  Change In Mass (%) - ref, Sorption: 0.156%
[2]; [23]
  Change In Mass (%) - ref, Desorption: 0.718%
  Change In Mass (%) - ref, Hysteresis: 0.355%
  Change In Mass (%) - ref, Sorption: 0.363%
[2]; [24]
  Change In Mass (%) - ref, Desorption: 1.060%
  Change In Mass (%) - ref, Hysteresis: 0.495%
  Change In Mass (%) - ref, Sorption: 0.565%
[2]; [25]
  Change In Mass (%) - ref, Desorption: 1.291%
  Change In Mass (%) - ref, Hysteresis: 0.539%
  Change In Mass (%) - ref, Sorption: 0.752%
[2]; [26]
  Change In Mass (%) - ref, Desorption: 1.459%
  Change In Mass (%) - ref, Hysteresis: 0.532%
  Change In Mass (%) - ref, Sorption: 0.927%
[2]; DVS Cycle 2, target 50.0 % P/Po, 24.9° C.
  Change In Mass (%) - ref, Desorption: 1.595%
[2]; DVS Cycle 2, target 60.0 % P/Po, 24.9° C.
  Change In Mass (%) - ref, Desorption: 1.711%
[2]; DVS Cycle 2, target 70.0 % P/Po, 24.9° C.
  Change In Mass (%) - ref, Desorption: 1.813%
[2]; DVS Cycle 2, target 80.0 % P/Po, 24.9° C.
  Change In Mass (%) - ref, Desorption: 1.901%
[2]; DVS Cycle 2, target 90.0 % P/Po, 24.9° C.
  Change In Mass (%) - ref, Desorption: 1.964%
[2]; DVS Cycle 2, target 95.0 % P/Po, 24.9° C.
  Change In Mass (%) - ref, Desorption: 1.911%
